Consider six compounds from patent US20070225213A1, “Nucleic acid carriers for delivery of therapeutic agents” (priority 2006, published 2007).

Data set [1] can be described thus: Paclitaxel solubilization by NAC, turbidity OD410 (Example 8). To be noted: formulation with a nucleic acid. Format: physicochemical.
Description: Solubility enhancement of paclitaxel by NAC. Aqueous paclitaxel solutions were prepared with or without DNA, sonicated, stored at room temperature for several hours, and then centrifuged. The pellets were resuspended in 50% ethanol and the precipitated paclitaxel was quantified using a standard absorbance curve at 230 nm. The total percentage of solubilized paclitaxel was calculated using %=100× (1-assy mM)/expected mM.
Materials: Paclitaxel 10.0 mg/ml (0.0118M, m.w. 853.92) in 80% ETOH. HSDNA (herring sperm degraded DNA 428A, Sigma-Aldrich) 10 mg/ml pH7 HSGDNA (genomic, Promega mw range 100 bp-3000 bp) 10 mg/ml. […] 1M potassium phosphate buffer pH5.
Aqueous paclitaxel solutions were prepared by combining 10 ul (0.01 ml) of paclitaxel stock (11.8 mM) with 2.0 ml H2O containing water only, HSGDNA, HSDNA, RNA, or HSDNA/pPEGPEI2K as indicated in the table. Samples were sonicated 3 min. with Branson Sonifier 450 @40% duty, at #3 output level. In 10 mM potassium phosphate pH5.
Let solutions stand 30 min, and read turbidity of 0.3 ml at A410 on the Synergy HT1. Samples were 10 min @2500 rpm on Beckman Allegra21R. The pellet was resuspended in 1.5 ml of 50% ETOH and OD230 nm was taken of a 0.3 ml sample in a Falcon UV clear plate on Synergy HT1. Prepared paclitaxel standard curve, 10 ul of 9.81 mM in 1 ml 50% ETOH was diluted 2×, serially in 5 vials at 0.5 ml final vol. […]
The conditions of data set [2]: physiological conditions; cited from earlier work.
For data set [3], the system named is human MCF-7 cells. The data set is described as follows: Visually scored toxicity of NAC-MTN / NAC-DOX at fixed loading (Example 3). Format: cell-based. To be noted: 5.1% drug loading, 16 hour incubation. On the procedure: Toxicity of NAC-MTN or NAC-DOX, at 50, 16.9, 5.6, and 1.9 ug/ml final drug concentration and 5.1 % drug loading in human MCF-7 cells. Sample A: 15 mg of HSDNA (EX031804A) was combined with 0.76 mg MTN(mw 517.4) or (sample B) 0.76 mg DOX (mw 579.99) to give 152 ug/ml final drug and 5.1% loading in 5 ml final vol. Samples C, D were MTN, or DOX only controls at equivalent final [drug] without HSDNA. Sample E was HSDNA, no drug and sample F was H2O only. MCF-7 cells were trypsinized and plated out previously. Triplicate samples were diluted 0.1 ml in 0.2 ml 1× media to give 3× fold serial dilution in 0.2 ml final. After 16 hour incubation the cells were visually inspected for signs of toxicity. Toxicity was scored as the following: 50%=one half all cells rounded, un-adhered or crenated.

Data set [4] can be described thus: Dipyridamole precipitation assay, supernatant absorbance A410 (Example 6). The data set is classed as physicochemical. On the procedure:
Similar results were obtained for dipyridamole (DPA). Dipyridamole is a coronary vasodilator and functions primarily to reduce platelet adhesion and aggregation. […] Dipyridamole for intravenous injection is given as a sodium chloride or dextrose injection with 5 mg of DPA, 50 mg PEG600, 2 mg tartaric acid, and water at pH 2.7. Dipyridamole is readily soluble in acidic solution, however at higher pH it can precipitate. […] Furthermore, the nucleic acid targeting of dipyridamole can provide unexpected therapeutic benefits by enhancing its accumulation in specific areas of the body.
Dipyridamole (DPA, m.w. 504.6) was prepared as 10.27 mM […] solution in water acidified with HCl. DNA was from HSDNA 428A) 10 mg/ml in H2O prev. heated to 80C.
Prepared samples 1-3 by combining 25 ul of DPA and 0.2 ml DNA to give a turbid solution. Added 7 ul of 1M HCl to clarify, followed by 0.1 ml of 1M potassium phosphate buffer (KP) pH7. Repeated for samples 4-6 and replace DNA with water. […] Read absorbance of 0.3 ml supernatant at A410. Higher values corresponded to more drug solubilized.

For data set [5] the following is noted: after 5 days; cited from earlier work.
A short description of data set [6]: Stability of NAC-DOX complex in hank's buffered saline (HBSS) at pH 7. The data set is classed as physicochemical. On the procedure: The NAC-DOX complex was tested for stability in hank's buffered saline (HBSS) at pH 7.
The subject of data set [7] is MCF7 cells. The data set is described as follows: Drug loading vs toxicity at fixed [drug], MTT viability assay (Example 4). The data set is classed as cell-based, human. The note with it: Drug only, without carrier; 0.103 mM DOX; 72 hours. On the procedure: FIG. 1. […] NAC-MTN or NAC-DOX were prepared at different weight:weight % of drug:nucleic acid and incubated in cells. For each sample and corresponding % loading, the total drug was held constant at 0.058 mM MTN or 0.1 mM DOX. After incubation in cells, cell viability was assayed via mitochondrial dehydrogenase activity against 3-[4,5-dimethylthiazol-2-yl]-2,5-diphenyl tetrazolium bromide (MTT) and reported as % toxicity relative to untreated cells.
Mitoxantrone (MTN, Sigma Aldrich) and Doxorubicin HCl (DOX) were diluted in HBSS to 1 mg/ml final. DNA, from degraded herring sperm DNA <40 bp (HSDNA, Sigma Aldrich), was prepared in water at 10 mg/ml. The drug was diluted in water or HBSS first, followed by addition of the DNA, in order to prevent precipitation. Precipitation of drug was especially a concern at 40% loading of MTN, which is the loading limit for HSDNA (degraded) and so the DNA is added slowly to the diluted MTN (the reverse addition leads to precipitation). All NAC-MTN formulation stocks were prepared at 0.15 mg/ml final MTN, and different concentration of DNA in order to give 15, 25, and 35.7% final drug loading w/w % of MTN/DNA in 0.5 ml final volume. All NAC-DOX formulations were prepared at 0.3 mg/ml final DOX, and either 5, 10, or 15% loaded drug weight/weight % of DOX/DNA in 0.5 ml final volume. […]

“And” between values parts separate entries of the source, which are not always exact repeats. Equal values may be shown once.

With `CC(=O)O[C@H]1C(=O)[C@@]2(C)[C@H]([C@H](OC(=O)c3ccccc3)[C@]3(O)C[C@H](OC(=O)[C@H](O)[C@@H](NC(=O)c4ccccc4)c4ccccc4)C(C)=C1C3(C)C)[C@]1(OC(C)=O)CO[C@@H]1C[C@@H]2O` [paclitaxel], the “enhancement of solubility of paclitaxel compared with water alone” value in data set [1] is recorded as at most 200%.

On to “Mylotarg: mAB-calcheamicin conjugate with hydrazone linker”, for which, in data set [2], the “drug existing in free form” value is “approximately 50%”.

Take `O=C1c2c(O)ccc(O)c2C(=O)c2c(NCCNCCO)ccc(NCCNCCO)c21` [C, mitoxantrone]: the “Toxicity (visual score)” value was determined as 90% in data set [3] (5.6 ug/ml final drug), 100% in data set [3] (17 ug/ml final drug), 100% in data set [3] (50 ug/ml final drug) and 20% in data set [3] (1 .9 ug/ml final drug).

Consider `OCCN(CCO)c1nc(N2CCCCC2)c2nc(N(CCO)CCO)nc(N3CCCCC3)c2n1` [DPA, dipyridamole], for which the stability against precipitation result in data set [4] (formulated with the nucleic acid carrier, aqueous solutions at pH 7) is “stabilized dipyridamole against precipitation”. Also, in data set [4] (potassium phosphate buffer pH7, 16 hours, higher = more drug solubilized, replicate samples), the A410 of supernatant is 0.388 and 0.396 and 0.401.

For `COc1cccc2c1C(=O)c1c(O)c3c(c(O)c1C2=O)C[C@@](O)(C(=O)CO)C[C@@H]3O[C@H]1C[C@H](N)[C@H](O)[C@H](C)O1` [DOX, doxorubicin], the “administered drug recovered in urine” value in data set [5] is on record as 4-5%. In addition, the “Toxicity (visual score)” value in data set [3] (17 ug/ml final drug) was 80-90%. In addition, in data set [6], the “stability in hank's buffered saline (HBSS) at pH 7” value was “became unstable at pH 7”. Besides, the “% Tox” value in data set [7] came to 67%.

Turning to `COc1cccc2c1C(=O)c1c(O)c3c(c(O)c1C2=O)C[C@@](O)(C(=O)CO)C[C@@H]3O[C@H]1C[C@H](N)[C@H](O)[C@H](C)O1` [Sample D, doxorubicin], the “Toxicity (visual score)” value was found to be 20% in data set [3] (5.6 ug/ml final drug), 80% in data set [3] (17 ug/ml final drug), 100% in data set [3] (50 ug/ml final drug) and 10% in data set [3] (1 .9 ug/ml final drug).
